Measured values from patent publication US20250230193A1, “CYCLIC COMPOUND HAVING SELECTIVE KRAS INHIBITORY EFFECT ON HRAS AND NRAS” (CHUGAI SEIYAKU KABUSHIKI KAISHA, priority 2022, published 2025).

Columns and labels:
[1] = molecular target: GDP-bound HRAS wild-type protein (Homo sapiens, UniProt P01112); test: Binding to HRAS by surface plasmon resonance (SPR), Single Cycle Kinetics; conditions: KD ratio, GDP-bound HRAS wild-type vs GDP-bound KRAS wild-type, SPR
[2] = molecular target: GDP-bound NRAS wild-type protein (Homo sapiens, UniProt P01111); test: Binding to NRAS by surface plasmon resonance (SPR), Single Cycle Kinetics; conditions: KD ratio, GDP-bound NRAS wild-type vs GDP-bound KRAS wild-type, SPR
GDP-bound NRAS wild-type protein, sequence (P01111 whole entry): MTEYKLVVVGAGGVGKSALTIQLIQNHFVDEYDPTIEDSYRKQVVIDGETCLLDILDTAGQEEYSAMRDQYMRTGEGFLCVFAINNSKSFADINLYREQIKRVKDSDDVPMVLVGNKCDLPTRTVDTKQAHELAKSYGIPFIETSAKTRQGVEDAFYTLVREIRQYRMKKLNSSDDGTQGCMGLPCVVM

GDP-bound HRAS wild-type protein, sequence (P01112 whole entry): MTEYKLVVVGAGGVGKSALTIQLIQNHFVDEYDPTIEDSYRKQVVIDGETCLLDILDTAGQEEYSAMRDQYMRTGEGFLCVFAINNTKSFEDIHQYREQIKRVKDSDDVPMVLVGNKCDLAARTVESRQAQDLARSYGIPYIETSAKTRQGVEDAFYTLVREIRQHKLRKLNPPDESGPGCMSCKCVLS

Row | Compound | HRAS/KRAS (ratio of KD value with respect to HRAS to KD value with respect to KRAS) [1] | NRAS/KRAS (ratio of KD value with respect to NRAS to KD value with respect to KRAS) [2]
1 | CC[C@H](C)[C@@H]1NC(=O)[C@H](Cc2cccc(Cl)c2)N(C)C(=O)C[C@@H](C(=O)N2CCOCC2)N(C)C(=O)[C@H](C2CCCC2)N(C)C(=O)C2(CCCC2)NC(=O)[C@@H]2CCCN2C(=O)[C@H](CCc2ccc(C(F)(F)F)c(Cl)c2)NC(=O)CN(C)C(=O)[C@H](Cc2ccc(F)cc2)N2CCCCC[C@@H](C2=O)N(C)C(=O)CN(C)C1=O [PP0963] | B (a compound having 3 or more and less than 10 is denoted as B) | B (a compound having 3 or more and less than 10 is denoted as B)
2 | CC[C@H](C)[C@@H]1NC(=O)[C@H](CC(C)C)N(C)C(=O)C[C@@H](C(=O)N2CCOCC2)N(C)C(=O)[C@H](C2CCCC2)N(C)C(=O)C2(CCCC2)NC(=O)[C@@H]2CCCN2C(=O)[C@H](CCc2cc(F)c(C(F)(F)F)c(F)c2)NC(=O)CN(C)C(=O)[C@H](Cc2ccc(F)cc2)N2CCCCC[C@@H](C2=O)N(C)C(=O)CN(C)C1=O [PP0964] | B (a compound having 3 or more and less than 10 is denoted as B) | B (a compound having 3 or more and less than 10 is denoted as B)
3 | CCO[C@@H]1C[C@H]2C(=O)NC3(CCCC3)C(=O)N(C)[C@@H](C3CCCC3)C(=O)N(C)[C@H](C(=O)N3CCOCC3)CC(=O)N(C)[C@@H](CC(C)C)C(=O)N[C@@H]([C@@H](C)CC)C(=O)N(C)CC(=O)N(C)[C@H]3CCCCCN(C3=O)[C@@H](Cc3ccc(F)cc3)C(=O)N(C)CC(=O)N[C@@H](CCc3ccc(C(F)(F)F)c(Cl)c3)C(=O)N2C1 [PP0965] | B (a compound having 3 or more and less than 10 is denoted as B) | B (a compound having 3 or more and less than 10 is denoted as B)
4 | CC[C@H](C)[C@@H]1NC(=O)[C@H](CC(C)C)N(C)C(=O)C[C@@H](C(=O)N2CCOCC2)N(C)C(=O)[C@H](C2CCCC2)N(C)C(=O)C2(CCCC2)NC(=O)[C@@H]2CC(F)(F)CN2C(=O)[C@H](CCc2ccc(C(F)(F)F)c(Cl)c2)NC(=O)CN(C)C(=O)[C@H](Cc2ccc(F)cc2)N2CCCCC[C@@H](C2=O)N(C)C(=O)CN(C)C1=O [PP0966] | B (a compound having 3 or more and less than 10 is denoted as B) | B (a compound having 3 or more and less than 10 is denoted as B)
5 | CC[C@H](C)[C@@H]1NC(=O)[C@H](CC(C)C)N(C)C(=O)C[C@@H](C(=O)N2CCOCC2)N(C)C(=O)[C@H](C2CCCC2)N(C)C(=O)C2(CCC2)NC(=O)[C@@H]2CCCN2C(=O)[C@H](CCc2ccc(C(F)(F)F)c(Cl)c2)NC(=O)CN(C)C(=O)[C@H](Cc2ccc(F)cc2)N2CCCCC[C@@H](C2=O)N(C)C(=O)CN(C)C1=O [PP0967] | B (a compound having 3 or more and less than 10 is denoted as B) | B (a compound having 3 or more and less than 10 is denoted as B)
6 | CCO[C@@H]1C[C@H]2C(=O)NC3(CCC3)C(=O)N(C)[C@@H](C3CCCC3)C(=O)N(C)[C@H](C(=O)N3CCOCC3)CC(=O)N(C)[C@@H](CC(C)C)C(=O)N[C@@H]([C@@H](C)CC)C(=O)N(C)CC(=O)N(C)[C@H]3CCCCCN(C3=O)[C@@H](Cc3ccc(F)cc3)C(=O)N(C)CC(=O)N[C@@H](CCc3ccc(C(F)(F)F)c(Cl)c3)C(=O)N2C1 [PP0968] | B (a compound having 3 or more and less than 10 is denoted as B) | B (a compound having 3 or more and less than 10 is denoted as B)
7 | CC[C@H](C)[C@@H]1NC(=O)[C@H](CC(C)C)N(C)C(=O)C[C@@H](C(=O)N2CCOCC2)N(C)C(=O)[C@H](C2CCCC2)N(C)C(=O)C2(CCC2)NC(=O)[C@@H]2CC(F)(F)CN2C(=O)[C@H](CCc2ccc(C(F)(F)F)c(Cl)c2)NC(=O)CN(C)C(=O)[C@H](Cc2ccc(F)cc2)N2CCCCC[C@@H](C2=O)N(C)C(=O)CN(C)C1=O [PP0969] | B (a compound having 3 or more and less than 10 is denoted as B) | B (a compound having 3 or more and less than 10 is denoted as B)
8 | CC[C@H](C)[C@@H]1NC(=O)[C@H](CC(C)C)N(C)C(=O)C[C@@H](C(=O)N2CCOCC2)N(CC)C(=O)[C@H](C2CCCC2)N(C)C(=O)C2(CCCC2)NC(=O)[C@@H]2CCCN2C(=O)[C@H](CCc2ccc(C(F)(F)F)c(Cl)c2)NC(=O)CN(C)C(=O)[C@H](Cc2ccc(F)cc2)N2CCCCC[C@@H](C2=O)N(C)C(=O)CN(C)C1=O [PP0970] | B (a compound having 3 or more and less than 10 is denoted as B) | B (a compound having 3 or more and less than 10 is denoted as B)
9 | CC[C@H](C)[C@@H]1NC(=O)[C@H](CC(C)C)N(C)C(=O)C[C@@H](C(=O)N(C)C)N(C)C(=O)[C@H](C2CCCC2)N(C)C(=O)C2(CCCC2)NC(=O)[C@@H]2CCCN2C(=O)[C@H](CCc2ccc(C(F)(F)F)c(Cl)c2)NC(=O)CN(C)C(=O)[C@H](Cc2ccc(F)cc2)N2CCCCC[C@@H](C2=O)N(C)C(=O)CN(C)C1=O [PP0971] | B (a compound having 3 or more and less than 10 is denoted as B) | B (a compound having 3 or more and less than 10 is denoted as B)
10 | CCO[C@@H]1C[C@H]2C(=O)NC3(CCC3)C(=O)N(C)[C@@H](C3CCCC3)C(=O)N(C)[C@H](C(=O)N(C)C)CC(=O)N(C)[C@@H](CC(C)C)C(=O)N[C@@H]([C@@H](C)CC)C(=O)N(C)CC(=O)N(C)[C@H]3CCCCCN(C3=O)[C@@H](Cc3ccc(F)cc3)C(=O)N(C)CC(=O)N[C@@H](CCc3ccc(C(F)(F)F)c(Cl)c3)C(=O)N2C1 [PP0972] | B (a compound having 3 or more and less than 10 is denoted as B) | B (a compound having 3 or more and less than 10 is denoted as B)
11 | CC[C@H](C)[C@@H]1NC(=O)[C@H](CC(C)C)N(C)C(=O)C[C@@H](C(=O)N(C)C)N(C)C(=O)[C@H](C2CCCC2)N(C)C(=O)C2(CCC2)NC(=O)[C@@H]2CC(F)(F)CN2C(=O)[C@H](CCc2ccc(C(F)(F)F)c(Cl)c2)NC(=O)CN(C)C(=O)[C@H](Cc2ccc(F)cc2)N2CCCCC[C@@H](C2=O)N(C)C(=O)CN(C)C1=O [PP0973] | B (a compound having 3 or more and less than 10 is denoted as B) | B (a compound having 3 or more and less than 10 is denoted as B)
